# Reference: US5840684A, “Glycopeptide antibiotic derivatives” (Eli Lilly and Company, priority 1995, dated 1998)
# What was measured:
# [1] = test system: vancomycin-susceptible enterococci; assay: broth micro-dilution, mean geometric MIC; format: cell-based, Enterococcus faecium and Enterococcus faecalis; conditions: enterococci, 24-hour incubation
# [2] = test system: Staphylococcus aureus SA1199; assay: broth micro-dilution MIC; format: cell-based
# Description: (§1) The MIC's were determined using a standard broth micro-dilution assay.
# [3] = test system: Staphylococcus aureus 446; assay: broth micro-dilution MIC; format: cell-based
# Description: as §1
# [4] = test system: Staphylococcus aureus X400; assay: broth micro-dilution MIC; format: cell-based
# Description: as §1
# Entercoccus faecium 276 = assay: broth micro-dilution MIC; format: cell-based
# Description: as §1
# [5] = test system: Staphylococcus aureus 491; assay: broth micro-dilution MIC; format: cell-based
# Description: as §1
# [6] = test system: Streptococcus pyogenes C203; assay: broth micro-dilution MIC; format: cell-based
# Description: as §1
# [7] = test system: Staphylococcus aureus 489; assay: broth micro-dilution MIC; format: cell-based
# Description: as §1
# [8] = test system: Staphylococcus aureus SA1199A; assay: broth micro-dilution MIC; format: cell-based
# Description: as §1
# [9] = test system: Staphylococcus aureus X778; assay: broth micro-dilution MIC; format: cell-based
# Description: as §1
# [10] = test system: Entercoccus faecium 180-1; assay: broth micro-dilution MIC; format: cell-based
# Description: as §1
# [11] = test system: Staphylococcus aureus 447; assay: broth micro-dilution MIC; format: cell-based
# Description: as §1
# [12] = test system: Streptococcus pneumoniae P1; assay: broth micro-dilution MIC; format: cell-based
# Description: (§2) The formula I compounds have in vitro and in vivo activity against Gram-positive pathogenic bacteria. The MIC's were determined using a standard broth micro-dilution assay.
# [13] = test system: Haemophilus influenzae RD; assay: broth micro-dilution MIC; format: cell-based; conditions: Haemophilus influenzae RD
# Description: as §2
# [14] = test system: Staphylococcus haemolyticus 105; assay: broth micro-dilution MIC; format: cell-based
# Description: as §2
# Entercoccus faecium 180 = assay: broth micro-dilution MIC; format: cell-based; conditions: Entercoccus faecium 180
# Description: as §2
# [15] = test system: Staphylococcus epidermidis 270; assay: broth micro-dilution MIC; format: cell-based
# Description: as §2
# [16] = test system: Staphylococcus haemolyticus 415; assay: broth micro-dilution MIC; format: cell-based
# Description: as §2
# Entercoccus faecium 2041 = assay: broth micro-dilution MIC; format: cell-based; conditions: Entercoccus faecium 2041
# Description: as §2
# Escherichia coli EC14 = assay: broth micro-dilution MIC; format: cell-based
# Description: as §2
# [17] = test system: Enterococcus gallinarum 245; assay: broth micro-dilution MIC; format: cell-based; conditions: Enterococcus gallinarum 245
# Description: as §2
# [18] = test system: Staphylococcus aureus SA1199B; format: cell-based
# Description: as §1
# [19] = test system: Staphylococcus aureus S13E; format: cell-based
# Description: as §1
# [20] = test system: vancomycin-resistant enterococci; assay: broth micro-dilution, mean geometric MIC; format: cell-based, Enterococcus faecium and Enterococcus faecalis; conditions: enterococci, 24-hour incubation
# Streptococcus pyogenes = assay: mouse protection, experimentally-induced infection; format: in vivo; conditions: mice infected with Streptococcus pyogenes, two doses
# Streptococcus pneumoniae = assay: mouse protection, experimentally-induced infection; format: in vivo; conditions: mice infected with Streptococcus pneumoniae, two doses
Compound,"mean geometric MIC, Vancomycin Sensitive Strains [1]",MIC [2],MIC [3],MIC [4],MIC (Entercoccus faecium 276),MIC [5],MIC [6],MIC [7],MIC [8],MIC [9],MIC [10],MIC [11],MIC [12],MIC [13],MIC [14],MIC (Entercoccus faecium 180),MIC [15],MIC [16],MIC (Entercoccus faecium 2041),"mean geometric MIC, Vancomycin Resistant Strains [20]",also measured
CC(C)CC(C(=O)NC1C(=O)NC(CC(N)=O)C(=O)NC2C(=O)NC3C(=O)NC(C(=O)NC(C(=O)O)c4cc(O)cc(O)c4-c4cc3ccc4O)C(OC3CC(C)(N)C(O)C(C)O3)c3ccc(c(Cl)c3)Oc3cc2cc(c3OC2OC(CO)C(O)C(O)C2OC2CC(C)(NCc3ccc(-c4ccc(Cl)cc4)cc3)C(O)C(C)O2)Oc2ccc(cc2Cl)C1O)N(C)Cc1ccc(-c2ccc(Cl)cc2)cc1.O=C(O)C(F)(F)F (stereo not shown) [Compound 253],3 µg/mL,32 µg/mL,64 µg/mL,32 µg/mL,16 µg/mL,2 µg/mL,0.25 µg/mL,16 µg/mL,1 µg/mL,16 µg/mL,0.5 µg/mL,16 µg/mL,0.125 µg/mL,> 64 µg/mL,16 µg/mL,0.5 µg/mL,8 µg/mL,16 µg/mL,4 µg/mL,4.8 µg/mL,MIC (Escherichia coli EC14): > 64 µg/mL; MIC [17]: 16 µg/mL; MIC [18]: 32 µg/mL; MIC [19]: 32 µg/mL
CC(C)CC(C(=O)NC1C(=O)NC(CC(N)=O)C(=O)NC2C(=O)NC3C(=O)NC(C(=O)NC(C(=O)O)c4cc(O)cc(O)c4-c4cc3ccc4O)C(OC3CC(C)(N)C(O)C(C)O3)c3ccc(c(Cl)c3)Oc3cc2cc(c3OC2OC(CO)C(O)C(O)C2OC2CC(C)(N)C(O)C(C)O2)Oc2ccc(cc2Cl)C1O)N(C)Cc1ccc(-c2ccccc2)cc1 (stereo not shown) [Compound 250],0.44 µg/mL,≤ 0.06 µg/mL,0.25 µg/mL,≤ 0.06 µg/mL,≤ 0.06 µg/mL,≤ 0.06 µg/mL,≤ 0.06 µg/mL,≤ 0.06 µg/mL,≤ 0.06 µg/mL,≤ 0.06 µg/mL,≤ 0.06 µg/mL,0.125 µg/mL,≤ 0.06 µg/mL,> 64 µg/mL,2 µg/mL,2 µg/mL,0.25 µg/mL,4 µg/mL,≤ 0.06 µg/mL,16 µg/mL,MIC (Escherichia coli EC14): > 64 µg/mL; MIC [17]: 4 µg/mL; MIC [18]: ≤ 0.06 µg/mL; MIC [19]: ≤ 0.06 µg/mL
CC(C)CC(C(=O)NC1C(=O)NC(CC(N)=O)C(=O)NC2C(=O)NC3C(=O)NC(C(=O)NC(C(=O)O)c4cc(O)cc(O)c4-c4cc3ccc4O)C(OC3CC(C)(N)C(O)C(C)O3)c3ccc(c(Cl)c3)Oc3cc2cc(c3OC2OC(CO)C(O)C(O)C2OC2CC(C)(NCc3c4ccccc4cc4ccccc34)C(O)C(C)O2)Oc2ccc(cc2Cl)C1O)N(C)Cc1c2ccccc2cc2ccccc12 (stereo not shown) [Compound 284],2.3 µg/mL,8 µg/mL,8 µg/mL,4 µg/mL,8 µg/mL,2 µg/mL,≤ 0.06 µg/mL,2 µg/mL,0.25 µg/mL,1 µg/mL,0.5 µg/mL,8 µg/mL,≤ 0.06 µg/mL,> 64 µg/mL,32 µg/mL,8 µg/mL,16 µg/mL,32 µg/mL,1 µg/mL,38 µg/mL,MIC (Escherichia coli EC14): > 64 µg/mL; MIC [17]: 32 µg/mL; MIC [18]: 4 µg/mL; MIC [19]: 4 µg/mL
CC(C)CC(C(=O)NC1C(=O)NC(CC(N)=O)C(=O)NC2C(=O)NC3C(=O)NC(C(=O)NC(C(=O)O)c4cc(O)cc(O)c4-c4cc3ccc4O)C(OC3CC(C)(N)C(O)C(C)O3)c3ccc(c(Cl)c3)Oc3cc2cc(c3OC2OC(CO)C(O)C(O)C2OC2CC(C)(NCc3cc4ccccc4s3)C(O)C(C)O2)Oc2ccc(cc2Cl)C1O)N(C)Cc1cc2ccccc2s1 (stereo not shown) [Compound 276],1.3 µg/mL,1 µg/mL,1 µg/mL,2 µg/mL,1 µg/mL,1 µg/mL,≤ 0.06 µg/mL,1 µg/mL,0.25 µg/mL,1 µg/mL,0.25 µg/mL,4 µg/mL,≤ 0.06 µg/mL,> 64 µg/mL,4 µg/mL,4 µg/mL,4 µg/mL,4 µg/mL,1 µg/mL,23 µg/mL,MIC (Escherichia coli EC14): > 64 µg/mL; MIC [17]: 4 µg/mL; MIC [18]: 1 µg/mL; MIC [19]: 2 µg/mL
CNC(CC(C)C)C(=O)NC1C(=O)NC(CC(N)=O)C(=O)NC2C(=O)NC3C(=O)NC(C(=O)NC(C(=O)O)c4cc(O)cc(O)c4-c4cc3ccc4O)C(OC3CC(C)(N)C(O)C(C)O3)c3ccc(c(Cl)c3)Oc3cc2cc(c3OC2OC(CO)C(O)C(O)C2OC2CC(C)(NCc3ccc(C(c4ccccc4)c4ccccc4)cc3)C(O)C(C)O2)Oc2ccc(cc2Cl)C1O (stereo not shown) [Compound 46],0.50 µg/mL,–,–,–,–,–,–,–,–,–,–,–,–,–,–,–,–,–,–,0.71 µg/mL,ED50 (Streptococcus pyogenes): 0.378 mg/kg/2; ED50 (Streptococcus pneumoniae): 0.156 mg/kg/2
CNC(CC(C)C)C(=O)NC1C(=O)NC(CC(N)=O)C(=O)NC2C(=O)NC3C(=O)NC(C(=O)NC(C(=O)O)c4cc(O)cc(O)c4-c4cc3ccc4O)C(OC3CC(C)(NCc4ccc(SC)cc4)C(O)C(C)O3)c3ccc(c(Cl)c3)Oc3cc2cc(c3OC2OC(CO)C(O)C(O)C2OC2CC(C)(NCc3ccc(SC)cc3)C(O)C(C)O2)Oc2ccc(cc2Cl)C1O (stereo not shown) [Compound 278],0.29 µg/mL,0.25 µg/mL,1 µg/mL,0.25 µg/mL,0.25 µg/mL,1 µg/mL,≤ 0.06 µg/mL,0.5 µg/mL,1 µg/mL,0.5 µg/mL,≤ 0.06 µg/mL,2 µg/mL,≤ 0.06 µg/mL,> 64 µg/mL,0.5 µg/mL,1 µg/mL,1 µg/mL,2 µg/mL,0.125 µg/mL,8 µg/mL,MIC (Escherichia coli EC14): > 64 µg/mL; MIC [17]: 2 µg/mL; MIC [18]: 0.5 µg/mL; MIC [19]: 1 µg/mL
COc1ccc2ccccc2c1CNC1(C)CC(OC2C(Oc3c4cc5cc3Oc3ccc(cc3Cl)C(OC3CC(C)(N)C(O)C(C)O3)C3NC(=O)C(NC(=O)C5NC(=O)C(CC(N)=O)NC(=O)C(NC(=O)C(CC(C)C)N(C)Cc5c(OC)ccc6ccccc56)C(O)c5ccc(c(Cl)c5)O4)c4ccc(O)c(c4)-c4c(O)cc(O)cc4C(C(=O)O)NC3=O)OC(CO)C(O)C2O)OC(C)C1O (stereo not shown) [Compound 282],2.6 µg/mL,16 µg/mL,32 µg/mL,16 µg/mL,4 µg/mL,16 µg/mL,≤ 0.06 µg/mL,8 µg/mL,1 µg/mL,16 µg/mL,1 µg/mL,> 64 µg/mL,≤ 0.06 µg/mL,> 64 µg/mL,> 64 µg/mL,32 µg/mL,> 64 µg/mL,> 64 µg/mL,4 µg/mL,45 µg/mL,MIC (Escherichia coli EC14): > 64 µg/mL; MIC [17]: > 64 µg/mL; MIC [18]: 16 µg/mL; MIC [19]: 16 µg/mL
